Columns and labels:
[1] = molecular target: Cannabinoid receptor 1 (Rattus norvegicus) (UniProt P20272); assay: Percentage affinity towards Cannabinoid receptor 1 using [3H]CP-55940 as radioligand in rat forebrain membranes; type: cell membranes; settings: Membrane
[2] = molecular target: T1, Fatty-acid amide hydrolase 1 (Rattus norvegicus, UniProt P97612); assay: Binding affinity towards Fatty-acid amide hydrolase (FAAH) in rat forebrain membranes; type: cell membranes, Membrane
T1 sequence (P97612 whole entry): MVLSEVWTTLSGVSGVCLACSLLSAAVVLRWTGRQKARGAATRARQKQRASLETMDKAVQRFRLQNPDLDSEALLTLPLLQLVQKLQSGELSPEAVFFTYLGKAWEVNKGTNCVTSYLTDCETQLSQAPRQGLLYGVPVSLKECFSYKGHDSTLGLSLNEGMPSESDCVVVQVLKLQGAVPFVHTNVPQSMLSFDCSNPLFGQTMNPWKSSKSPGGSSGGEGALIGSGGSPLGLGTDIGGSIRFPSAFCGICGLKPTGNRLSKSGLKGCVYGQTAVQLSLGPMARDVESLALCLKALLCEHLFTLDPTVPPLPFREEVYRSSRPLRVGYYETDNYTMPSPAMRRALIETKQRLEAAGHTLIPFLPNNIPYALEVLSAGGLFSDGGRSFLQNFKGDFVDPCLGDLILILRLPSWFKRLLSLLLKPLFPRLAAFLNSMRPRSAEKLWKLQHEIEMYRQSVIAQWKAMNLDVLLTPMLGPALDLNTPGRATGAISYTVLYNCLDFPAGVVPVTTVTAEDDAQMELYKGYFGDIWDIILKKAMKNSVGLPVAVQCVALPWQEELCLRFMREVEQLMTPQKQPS

[3] = molecular target: T2, Fatty-acid amide hydrolase 1 (Rattus norvegicus) (UniProt P97612); assay: Inhibitory effect on the Fatty-acid amide hydrolase (FAAH) activity was determined by % inhibition of anandamide hydrolysis at 1 uM concentration of compound; type: functional
T2 sequence (whole entry): T1 sequence (P97612 whole entry)

[4] = molecular target: T2, Fatty-acid amide hydrolase 1 (Rattus norvegicus); assay: Inhibitory effect on the Fatty-acid amide hydrolase (FAAH) activity was determined by % inhibition of anandamide hydrolysis at 10 uM concentration of compound; type: functional
Cannabinoid receptor 1 = Cannabinoid receptor 1 (Rattus norvegicus, UniProt P20272); assay: Binding affinity towards Cannabinoid receptor 1 in rat forebrain membranes using [3H]CP-55940 as radioligand; type: cell membranes, Membrane
Chain of Cannabinoid receptor 1 (P20272 whole entry): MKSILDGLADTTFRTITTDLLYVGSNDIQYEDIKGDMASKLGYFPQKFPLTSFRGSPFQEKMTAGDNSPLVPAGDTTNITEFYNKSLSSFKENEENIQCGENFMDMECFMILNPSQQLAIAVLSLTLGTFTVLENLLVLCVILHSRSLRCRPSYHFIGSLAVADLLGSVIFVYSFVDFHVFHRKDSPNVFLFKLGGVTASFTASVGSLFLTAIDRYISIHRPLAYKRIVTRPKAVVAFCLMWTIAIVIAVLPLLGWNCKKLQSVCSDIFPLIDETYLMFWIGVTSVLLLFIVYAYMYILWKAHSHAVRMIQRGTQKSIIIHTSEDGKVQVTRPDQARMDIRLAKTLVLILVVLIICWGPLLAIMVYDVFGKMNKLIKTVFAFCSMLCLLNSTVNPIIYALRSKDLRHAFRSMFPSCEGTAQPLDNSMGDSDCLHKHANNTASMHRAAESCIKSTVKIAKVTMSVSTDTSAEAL

Chain of Cannabinoid receptor 1 (Rattus norvegicus) (P20272 whole entry): as above

SMILES	Affinity [1]	Ki [2]	Inhibition of anandamide hydrolysis [3]	Inhibition of anandamide hydrolysis [4]	Ki (Cannabinoid receptor 1)
CCCCC/C=C\C/C=C\C/C=C\C/C=C\CCCC(=O)NCCO [ANANDAMIDE]	19%	3000 nM	–	–	–
CCCCC/C=C\C/C=C\CCCCCCCC(=O)CCCO	72%	–	100%	100%	–
CCCCC/C=C\C/C=C\C/C=C\C/C=C\CCC(C)(C)C(=O)OCCO	100%	2100 nM	90%	12%	> 10000 nM
CCCCC/C=C\C/C=C\C/C=C\C/C=C\CCCC(=O)CCCO	38%	–	91%	78%	360 nM
CCCCC/C=C\C/C=C\C/C=C\C/C=C\CCCC(=O)OCCO	83%	–	100%	70%	> 10000 nM

Source: ChEMBL document CHEMBL1136533, “Hemisynthesis and preliminary evaluation of novel endocannabinoid analogues” (Bioorg Med Chem Lett, 2003)
